Experimental data: the NIST ThermoML archive (doi:10.1016/j.jct.2019.04.009)
± gives the expanded uncertainty stated by the source.

Assay: mn = molality of the nth substance listed, in mol/kg
Conditions: Liquid, Vibrating tube method

NC(N)=O [urea] + O
mass density (298.15 K, 100 kPa, m1 = 0.1001): 998.63 ± 0.11 kg/m3
mass density (298.15 K, 100 kPa, m1 = 0.1999): 1000.2 ± 0.11 kg/m3
mass density (298.15 K, 100 kPa, m1 = 0.3): 1001.75 ± 0.11 kg/m3
mass density (298.15 K, 100 kPa, m1 = 0.4): 1003.29 ± 0.11 kg/m3
mass density (298.15 K, 100 kPa, m1 = 0.5001): 1004.81 ± 0.11 kg/m3

NC(N)=O [urea] + OCCO
mass density (288.15 K, 99.6 kPa, m1 = 0.0551): 1117.63 ± 0.12 kg/m3
mass density (288.15 K, 99.6 kPa, m1 = 0.1487): 1118.67 ± 0.12 kg/m3
mass density (288.15 K, 99.6 kPa, m1 = 0.3264): 1120.61 ± 0.13 kg/m3
mass density (288.15 K, 99.6 kPa, m1 = 0.446): 1121.88 ± 0.13 kg/m3
mass density (288.15 K, 99.6 kPa, m1 = 0.495): 1122.39 ± 0.13 kg/m3
mass density (288.15 K, 99.6 kPa, m1 = 0.6616): 1124.11 ± 0.13 kg/m3
mass density (288.15 K, 99.6 kPa, m1 = 0.8791): 1126.28 ± 0.13 kg/m3
mass density (288.15 K, 99.6 kPa, m1 = 1.072): 1128.14 ± 0.13 kg/m3
mass density (288.15 K, 99.6 kPa, m1 = 1.208): 1129.41 ± 0.13 kg/m3
mass density (288.15 K, 99.6 kPa, m1 = 1.357): 1130.76 ± 0.13 kg/m3
mass density (288.15 K, 99.6 kPa, m1 = 1.523): 1132.23 ± 0.13 kg/m3
mass density (298.15 K, 99.6 kPa, m1 = 0.0551): 1110.69 ± 0.12 kg/m3
mass density (298.15 K, 99.6 kPa, m1 = 0.1487): 1111.72 ± 0.12 kg/m3
mass density (298.15 K, 99.6 kPa, m1 = 0.3264): 1113.63 ± 0.12 kg/m3
mass density (298.15 K, 99.6 kPa, m1 = 0.446): 1114.89 ± 0.12 kg/m3
mass density (298.15 K, 99.6 kPa, m1 = 0.495): 1115.41 ± 0.12 kg/m3
mass density (298.15 K, 99.6 kPa, m1 = 0.6616): 1117.13 ± 0.12 kg/m3
mass density (298.15 K, 99.6 kPa, m1 = 0.8791): 1119.33 ± 0.12 kg/m3
mass density (298.15 K, 99.6 kPa, m1 = 1.072): 1121.24 ± 0.13 kg/m3
mass density (298.15 K, 99.6 kPa, m1 = 1.208): 1122.55 ± 0.13 kg/m3
mass density (298.15 K, 99.6 kPa, m1 = 1.357): 1123.96 ± 0.13 kg/m3
mass density (298.15 K, 99.6 kPa, m1 = 1.523): 1125.51 ± 0.13 kg/m3
mass density (308.15 K, 99.6 kPa, m1 = 0.0551): 1103.68 ± 0.12 kg/m3
mass density (308.15 K, 99.6 kPa, m1 = 0.1487): 1104.7 ± 0.12 kg/m3
mass density (308.15 K, 99.6 kPa, m1 = 0.3264): 1106.59 ± 0.12 kg/m3
mass density (308.15 K, 99.6 kPa, m1 = 0.446): 1107.84 ± 0.12 kg/m3
mass density (308.15 K, 99.6 kPa, m1 = 0.495): 1108.35 ± 0.12 kg/m3
mass density (308.15 K, 99.6 kPa, m1 = 0.6616): 1110.06 ± 0.12 kg/m3
mass density (308.15 K, 99.6 kPa, m1 = 0.8791): 1112.26 ± 0.12 kg/m3
mass density (308.15 K, 99.6 kPa, m1 = 1.072): 1114.15 ± 0.12 kg/m3
mass density (308.15 K, 99.6 kPa, m1 = 1.208): 1115.46 ± 0.12 kg/m3
mass density (308.15 K, 99.6 kPa, m1 = 1.357): 1116.88 ± 0.12 kg/m3
mass density (308.15 K, 99.6 kPa, m1 = 1.523): 1118.42 ± 0.12 kg/m3
mass density (318.15 K, 99.6 kPa, m1 = 0.0551): 1096.6 ± 0.12 kg/m3
mass density (318.15 K, 99.6 kPa, m1 = 0.1487): 1097.61 ± 0.12 kg/m3
mass density (318.15 K, 99.6 kPa, m1 = 0.3264): 1099.51 ± 0.12 kg/m3
mass density (318.15 K, 99.6 kPa, m1 = 0.446): 1100.77 ± 0.12 kg/m3
mass density (318.15 K, 99.6 kPa, m1 = 0.495): 1101.28 ± 0.12 kg/m3
mass density (318.15 K, 99.6 kPa, m1 = 0.6616): 1103 ± 0.12 kg/m3
mass density (318.15 K, 99.6 kPa, m1 = 0.8791): 1105.19 ± 0.12 kg/m3
mass density (318.15 K, 99.6 kPa, m1 = 1.072): 1107.09 ± 0.12 kg/m3
mass density (318.15 K, 99.6 kPa, m1 = 1.208): 1108.4 ± 0.12 kg/m3
mass density (318.15 K, 99.6 kPa, m1 = 1.357): 1109.83 ± 0.12 kg/m3
mass density (318.15 K, 99.6 kPa, m1 = 1.523): 1111.4 ± 0.12 kg/m3
mass density (328.15 K, 99.6 kPa, m1 = 0.0551): 1089.43 ± 0.12 kg/m3
mass density (328.15 K, 99.6 kPa, m1 = 0.1487): 1090.44 ± 0.12 kg/m3
mass density (328.15 K, 99.6 kPa, m1 = 0.3264): 1092.34 ± 0.12 kg/m3
mass density (328.15 K, 99.6 kPa, m1 = 0.446): 1093.59 ± 0.12 kg/m3
mass density (328.15 K, 99.6 kPa, m1 = 0.495): 1094.1 ± 0.12 kg/m3
mass density (328.15 K, 99.6 kPa, m1 = 0.6616): 1095.82 ± 0.12 kg/m3
mass density (328.15 K, 99.6 kPa, m1 = 0.8791): 1098.01 ± 0.12 kg/m3
mass density (328.15 K, 99.6 kPa, m1 = 1.072): 1099.92 ± 0.12 kg/m3
mass density (328.15 K, 99.6 kPa, m1 = 1.208): 1101.23 ± 0.12 kg/m3
mass density (328.15 K, 99.6 kPa, m1 = 1.357): 1102.66 ± 0.12 kg/m3
mass density (328.15 K, 99.6 kPa, m1 = 1.523): 1104.22 ± 0.12 kg/m3
